Results as given in US4305852A, “Polypeptide compositions” (American Home Products Corporation, priority 1980, dated 1981).
Where a SMILES comes first, the peptide text is derived from it. Where no end group is shown, it is not given here. [ ]: non-standard residue; d: D form.

Experiments:
T lymphocytes = experiment: T lymphocyte proliferation, 3H-thymidine incorporation; type: cell-based, male CBA/J or NZB mice; details: 48 h culture
Procedure: T lymphocytes are isolated from spleens of male CBA/J or NZB mice. Cell homogenates are prepared in Hank's balanced salt solution (HBSS). After removal of larger particles and repeated washing of the cells in HBSS they are suspended in minimum essential medium (MEM) and passed through a glass wool column to remove macrophages. The cells are then incubated on a nylon wool column at 37° C., 95% air, 5% CO2, for 45 minutes. The non-adherant T lymphocytes are then eluted from the column, counted, and adjusted to 20×10^6 cells/ml. 50 μl of cells are cultured (37° C., 95% air, 5% CO2) with compound, for 48 hours before the addition of 0.5 μCi. of 3H-thymidine for the last 16 hours of culture. The total volume of the culture system is 200 μl. The cells are then harvested on a multiple automatic sample harvester (Mash II), the glass fiber filter disks placed in 10 ml. of xylene base scintillation fluid, and counted for 1 minute in a liquid scintillation counter. Results are reported as CPM±SE.

cells of the B lineage = details: in vitro; cited from earlier work
murine prothymocytes = details: in vitro; cited from earlier work
[1] = tested on: autologous rosette-forming cells; details: in vivo, athymic mice; cited from earlier work

Compound | CPM ± SE (3H-thymidine incorporation) (T lymphocytes; 0.00075 μg/culture, second experiment (blank 19275 ± 1298)) [CPM] | CPM ± SE (3H-thymidine incorporation) (T lymphocytes; 0.0015 μg/culture, first experiment (blank 9876 ± 951)) [CPM] | CPM ± SE (3H-thymidine incorporation) (T lymphocytes; 0.0015 μg/culture, second experiment (blank 19275 ± 1298)) [CPM] | CPM ± SE (3H-thymidine incorporation) (T lymphocytes; 0.006 μg/culture, first experiment (blank 9876 ± 951)) [CPM] | CPM ± SE (3H-thymidine incorporation) (T lymphocytes; 0.006 μg/culture, second experiment (blank 19275 ± 1298)) [CPM] | CPM ± SE (3H-thymidine incorporation) (T lymphocytes; 0.025 μg/culture, first experiment (blank 9876 ± 951)) [CPM] | CPM ± SE (3H-thymidine incorporation) (T lymphocytes; 0.025 μg/culture, second experiment (blank 19275 ± 1298)) [CPM] | CPM ± SE (3H-thymidine incorporation) (T lymphocytes; 0.1 μg/culture, first experiment (blank 9876 ± 951)) [CPM] | differentiative induction of cells of the B lineage (cells of the B lineage) | differentiation of murine prothymocytes to thymocytes (murine prothymocytes) | numbers of autologous rosette-forming cells in spleens [1]
CC(=O)O.CC(=O)O.CC(=O)O.CC(C)[C@H](NC(=O)[C@H](CC(=O)O)NC(=O)[C@H](CCCCN)NC(=O)[C@@H](N)CCCNC(=N)N)C(=O)N[C@H](C)C(N)=O [Arg--Lys--Asp--Val--D--Ala--NH2, L-arginyl-L-lysyl-L-aspartyl-L-valyl-D-alaninamide triacetate] (H-RKDV[dA]-NH2) | 18983 ± 2651 | 20305 ± 2347 | 22966 | 18640 ± 1830 | 28559 ± 3663 | 30181 ± 3895 | 25515 ± 2486 | 21887 ± 3143 | – | – | –
RKDVY [arginyl-lysyl-aspartyl-valyl-tyrosine] | – | – | – | – | – | – | – | – | inhibited differentiative induction of cells of the B lineage | induced the differentiation of murine prothymocytes to thymocytes | reducing the high numbers of autologous rosette-forming cells
